Assay results reported in BindingDB's records for doi:10.1111/cbdd.12778 (Shandong University, 2016).

Key:
Histone deacetylase 8 = biological target: T1, Histone deacetylase 8 (Homo sapiens, UniProt Q9BY41); test: In vitro HDAC8 Assay
T1 sequence (Q9BY41 whole entry): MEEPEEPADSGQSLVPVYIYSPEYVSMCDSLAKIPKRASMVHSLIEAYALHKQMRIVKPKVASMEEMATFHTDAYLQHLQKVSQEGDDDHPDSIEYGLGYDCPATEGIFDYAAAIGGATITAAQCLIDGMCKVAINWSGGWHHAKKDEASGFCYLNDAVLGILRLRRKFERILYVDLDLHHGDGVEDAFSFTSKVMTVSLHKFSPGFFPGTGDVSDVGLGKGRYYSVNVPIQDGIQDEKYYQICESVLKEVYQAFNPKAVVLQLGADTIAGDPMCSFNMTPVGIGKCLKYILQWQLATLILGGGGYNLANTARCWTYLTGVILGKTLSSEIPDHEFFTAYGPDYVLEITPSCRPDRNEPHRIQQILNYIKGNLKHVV
Protocol: Briefly, the HDAC8 enzyme was diluted 20 times. Then, 10 μL of HDAC8 solution was mixed with compounds at various concentrations (50 μL). Then, 40 μL of the substrate [Boc-Lys-(acetyl)-AMC, 300 μm] was added, and the mixture was incubated at 37 °C for 30 min. Subsequently, the reaction was stopped by the addition of 100 μL of developer containing trypsin (10 μg/mL) and TSA (2 μm). Fluorescence intensity was measured by a microplate reader at excitation and emission wavelengths of 390 and 460 nm, respectively.

Aminopeptidase N = biological target: T2, Aminopeptidase N (Sus scrofa, UniProt P15145); test: APN Inhibition Assay; conditions: pH 7.2
T2 sequence (P15145 whole entry): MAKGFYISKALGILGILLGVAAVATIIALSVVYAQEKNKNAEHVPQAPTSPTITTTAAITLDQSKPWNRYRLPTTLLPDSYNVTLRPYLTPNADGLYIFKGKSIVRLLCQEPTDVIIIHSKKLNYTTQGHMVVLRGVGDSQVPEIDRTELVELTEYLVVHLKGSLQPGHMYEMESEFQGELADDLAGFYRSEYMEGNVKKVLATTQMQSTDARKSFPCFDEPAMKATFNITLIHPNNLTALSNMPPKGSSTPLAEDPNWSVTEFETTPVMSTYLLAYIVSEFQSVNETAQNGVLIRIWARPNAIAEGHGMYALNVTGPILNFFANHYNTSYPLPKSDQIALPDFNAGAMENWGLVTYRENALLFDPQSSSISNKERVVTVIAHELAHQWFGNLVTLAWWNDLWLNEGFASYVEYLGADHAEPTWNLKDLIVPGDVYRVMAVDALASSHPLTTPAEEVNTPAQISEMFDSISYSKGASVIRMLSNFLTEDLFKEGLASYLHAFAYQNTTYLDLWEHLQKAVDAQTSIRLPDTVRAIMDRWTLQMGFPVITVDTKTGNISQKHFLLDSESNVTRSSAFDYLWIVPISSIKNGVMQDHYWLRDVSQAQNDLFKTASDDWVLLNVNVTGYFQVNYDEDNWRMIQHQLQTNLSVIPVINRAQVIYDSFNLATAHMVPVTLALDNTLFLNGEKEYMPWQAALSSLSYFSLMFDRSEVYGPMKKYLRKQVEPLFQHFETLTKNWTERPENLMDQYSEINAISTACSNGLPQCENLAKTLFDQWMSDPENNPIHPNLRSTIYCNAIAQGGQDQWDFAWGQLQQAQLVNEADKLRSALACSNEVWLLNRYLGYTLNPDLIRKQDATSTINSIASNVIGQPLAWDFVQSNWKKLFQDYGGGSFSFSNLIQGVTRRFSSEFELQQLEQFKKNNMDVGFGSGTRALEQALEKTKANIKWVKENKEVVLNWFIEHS
Protocol: Briefly, the assay was performed in 96-well plates in […] PBS, pH 7.2 as the assay buffer, at 37 °C. The APN solution was mixed with compounds at various concentrations and incubated at 37 °C for 5 min. Subsequently, the substrate (l-leucine-p-nitroanilide) was added and the mixture was incubated for 30 min at 37°C.

Structure (SMILES)	IC50 (Histone deacetylase 8) [µM]	IC50 (Aminopeptidase N) [µM]
CC1(C)CCC(C)(C)c2cc(NC(=O)c3ccc(C(=O)O)cc3)ccc21 [4-[(5,5,8,8-tetramethyl-5,6,7,8-tetrahydronaphthalen-2-yl)carbamoyl]benzoic acid]	> 100	> 100
CC1(C)CCC(C)(C)c2cc(NC(=O)c3ccc(C(=O)NO)cc3)ccc21 [N1-hydroxy-N4-(5,5,8,8-tetramethyl-5,6,7,8-tetrahydronaphthalen-2-yl)terephthalamide (7b)]	4.3	> 100
O=C(CCCCCCC(=O)Nc1ccccc1)NO [Zolinza]		> 100
